For the test, the system named is Plasmodium berghei. Nature of the test: Luciferase/luciferin-expressing antifolate-resistant parasites were used to infect a culture of HepG2 cells that were pre-incubated with compounds. Infected hepatocytes emit light due to the luciferase reaction. Assay results are presented as the percent inhibition of light emission compared to control. […]. In kind it is functional. To be noted: sporozoite; for IC90: read-out: LUCIFERASE INFECTION ASSAY - IC90.

Where [1] appears, read: read-out: LUCIFERASE INFECTION ASSAY - IC50.

A word on the IC50: it is the point on the concentration scale where inhibition reaches its midpoint. As usually defined, the IC90 is the concentration needed for an effect of 90%.

For `COc1ccc(S(=O)(=O)N(Cc2cccs2)c2ccc3c(c2)OCCO3)cc1NC(C)=O`, the IC90 is > 10 µM. Moreover, the 50% inhibitory concentration (IC50) (HEPG2TOX_HILL_SLOPE 1.25, HEPG2TOX_R_SQUARED 0.989, PBLUC_HILL_SLOPE 1.59, PBLUC_R_SQUARED 0.297, read-out: LUCIFERASE INFECTION ASSAY - IC50) is 4.15 µM.

For `CC(C)(C)NC(=S)N/N=C/c1cccc(O)c1O`, the 90% effect concentration (IC90) is > 12.3 µM. In addition, the IC50 under setting [1] was > 12.3 µM.

With `Cc1cc(/C=C/c2cc(C(=O)O)c3ccccc3n2)cc(C)c1OC(F)F`, the IC90 is 3.87 µM. For the setting “HEPG2TOX_HILL_SLOPE 0.464, HEPG2TOX_R_SQUARED 0.656, PBLUC_HILL_SLOPE 13.4, PBLUC_R_SQUARED 0.624, read-out: LUCIFERASE INFECTION ASSAY - IC50”, the IC50 stood at 3.28 µM.

As for `Cc1[nH]nc2ccnc(-c3cccc(Cl)c3)c12`, the IC90 was > 10 µM. Moreover, where the note is “HEPG2TOX_HILL_SLOPE 7.21, HEPG2TOX_R_SQUARED 0.311, read-out: LUCIFERASE INFECTION ASSAY - IC50”, the IC50 is > 10 µM.

On to `NS(=O)(=O)c1ccc(CCNc2nn3c(-c4cccc(Cl)c4)cnc3s2)cc1`, for which the concentration for an effect of 90% (IC90) is > 7.6 µM. For the same compound, the IC50 (FFLUC_HILL_SLOPE 1.14, FFLUC_R_SQUARED 0.295, read-out: LUCIFERASE INFECTION ASSAY - IC50) is > 7.6 µM.

As for `CCC1(CC)CC(=O)N(CC(O)COc2ccc(C(C)(C)C)cc2)C1=O` (stereo unspecified), the IC90 was > 10 µM. Also, the IC50 (PBLUC_HILL_SLOPE 2.11, PBLUC_R_SQUARED 0.442, read-out: LUCIFERASE INFECTION ASSAY - IC50) was found to be 5.07 µM.

`CC(=O)Nc1cccc(-c2cn3c(-c4ccc(C#N)cc4)cnc3cn2)c1`: the 90% effect concentration (IC90) was > 9.34 µM. Further, the IC50 (PBLUC_HILL_SLOPE 15, PBLUC_R_SQUARED 0.251, read-out: LUCIFERASE INFECTION ASSAY - IC50) was determined as 8.2 µM.

Regarding `C=CCc1ccccc1OCC(O)CN1CCN(c2ccccc2OC)CC1` (stereo unspecified), the IC90 is > 7.88 µM. For the same compound, the 50% inhibitory concentration (IC50) under setting [1] is > 7.88 µM.

On to `CSc1sc(-c2cc[nH]n2)c(-c2ccccc2)c1C#N`, for which the concentration for an effect of 90% (IC90) was > 11.1 µM. Moreover, the concentration for half-maximal inhibition (IC50) under setting [1] is > 11.1 µM.

Regarding `C=S(=O)(N/C=C1/C(=O)c2ccccc2N(C)S1(=O)=O)c1ccccc1` (stereo unspecified), the IC90 was > 8.77 µM. For the same compound, under setting [1], the IC50 was > 8.77 µM.

On to `COc1ccc(C(=O)Nc2ccccc2-c2nc3ccccc3[nH]2)cc1S(=O)(=O)N1CCCC1`, for which the 90% effect concentration (IC90) is > 10 µM. For the same compound, the concentration for half-maximal inhibition (IC50) (PBLUC_HILL_SLOPE 15.4, PBLUC_R_SQUARED 0.501, read-out: LUCIFERASE INFECTION ASSAY - IC50) was determined as 8.92 µM.

For `O=C1c2ccccc2S(=O)(=O)N1c1ccccc1F`, the IC90 was > 10 µM. Also, the IC50 under setting [1] was > 10 µM.

Consider `Clc1ccc(SCc2cc(NCc3ccccc3)nc(-c3cccnc3)n2)cc1`, for which the concentration for an effect of 90% (IC90) was determined as 7.84 µM. In addition, the IC50 under setting [1] was 6.53 µM.

On to `CC(C)(C)C(=O)Nc1ccc(-c2nc3ncccc3o2)c(Cl)c1`, for which the IC90 turned out to be 4.94 µM. Moreover, the IC50 (FFLUC_HILL_SLOPE 2.53, FFLUC_R_SQUARED 0.8, PBLUC_HILL_SLOPE 0.961, PBLUC_R_SQUARED 0.809, read-out: LUCIFERASE INFECTION ASSAY - IC50) stood at 0.502 µM.

Turning to `Cc1nn(-c2ccccc2)c2nc(-c3ccccc3)c(-c3nc4ccccc4[nH]3)c(-c3ccncc3)c12`, the concentration for an effect of 90% (IC90) was > 10 µM. Moreover, the half-inhibitory concentration (IC50) (FFLUC_HILL_SLOPE 17.6, FFLUC_R_SQUARED 0.574, PBLUC_HILL_SLOPE 2.67, PBLUC_R_SQUARED 0.448, read-out: LUCIFERASE INFECTION ASSAY - IC50) came to 7.61 µM.

As for `COc1cccc(NC(=O)c2cccc(C3(CNCc4ccccc4F)CC3)c2)c1`, the IC90 was > 10 µM. The IC50 under setting [1] was > 10 µM.

Take `O=C(Nc1nc2ccc(Oc3ccccc3)cc2s1)c1ccc(S(=O)(=O)C(F)F)cc1`: the 90% effect concentration (IC90) is > 10 µM. The IC50 (HEPG2TOX_HILL_SLOPE 10.3, HEPG2TOX_R_SQUARED 0.512, read-out: LUCIFERASE INFECTION ASSAY - IC50) is > 10 µM.

As for `Fc1ccc(-c2csc3ncnc(NC4CCN(Cc5ccccc5)C4)c23)cc1` (stereo unspecified), the IC90 is > 10 µM. For the setting “PBLUC_HILL_SLOPE 12.7, PBLUC_R_SQUARED 0.103, read-out: LUCIFERASE INFECTION ASSAY - IC50”, the half-inhibitory concentration (IC50) came to 9.17 µM.

For `CCC1CCc2sc(C(=O)NN)cc2C1` (stereo unspecified), the 90% effect concentration (IC90) was > 10 µM. Besides, the half-maximal inhibitory concentration (IC50) under setting [1] is > 10 µM.

With `CCc1ccc(-n2nnnc2C/C=N/Nc2ccc(F)cc2)cc1`, the IC90 was > 10.2 µM. Under setting [1], the IC50 was > 10.2 µM.

On to `CCOC(=O)c1sc2cccc(F)c2c1CSc1nc2sccc2c(=O)n1C`, for which the 90% effect concentration (IC90) worked out at 9.27 µM. Under setting [1], the concentration for half-maximal inhibition (IC50) is 4.11 µM.

As for `CC(C)(C)c1ccc(C(=O)Nc2cc(F)ccc2F)s1`, the concentration for an effect of 90% (IC90) amounted to 0.55 µM. For the same compound, the IC50 (PBLUC_HILL_SLOPE 0.906, PBLUC_R_SQUARED 0.913, read-out: LUCIFERASE INFECTION ASSAY - IC50) was determined as 0.0487 µM.

Take `Cc1nn(Cc2ccc(F)cc2)c2sc(C(=O)NCc3nnc4ccc(C(F)(F)F)cn34)cc12`: the concentration for an effect of 90% (IC90) was > 10 µM. Besides, under setting [1], the IC50 was > 10 µM.

With `O=C(Cn1[nH]c(=O)c2ccccc2c1=O)NCc1ccc(CN2CCOCC2)cc1`, the concentration for an effect of 90% (IC90) was > 10 µM. Further, the concentration for half-maximal inhibition (IC50) under setting [1] is > 10 µM.

On to `Nc1cc(C(F)(F)F)cnc1Nc1ccc(Cl)cc1`, for which the concentration for an effect of 90% (IC90) is > 11.5 µM. The IC50 under setting [1] is > 11.5 µM.

`OC(CN1CCN(CC(O)Cn2c3ccccc3c3ccccc32)CC1)Cn1c2ccccc2c2ccccc21` (stereo unspecified): the 90% effect concentration (IC90) was > 6.2 µM. In addition, the concentration for half-maximal inhibition (IC50) (PBLUC_HILL_SLOPE 2.73, PBLUC_R_SQUARED 0.624, read-out: LUCIFERASE INFECTION ASSAY - IC50) is 3.03 µM.

On to `O=C(Cn1cnc2c(cnn2-c2ccccc2)c1=O)c1c[nH]c2ccccc12`, for which the IC90 was > 10 µM. The IC50 (HEPG2TOX_HILL_SLOPE 3.41, HEPG2TOX_R_SQUARED 0.825, PBLUC_HILL_SLOPE 1.56, PBLUC_R_SQUARED 0.738, read-out: LUCIFERASE INFECTION ASSAY - IC50) stood at 2.81 µM.

On to `CC(=O)c1cccc(-c2cnc3cnc(-c4cnn(C)c4)cn23)c1`, for which the IC90 was > 10.4 µM. Besides, the IC50 (HEPG2TOX_HILL_SLOPE 7.11, HEPG2TOX_R_SQUARED 0.363, PBLUC_HILL_SLOPE 4.07, PBLUC_R_SQUARED 0.503, read-out: LUCIFERASE INFECTION ASSAY - IC50) worked out at 9.68 µM.

Take `CC(=O)c1ccc(-c2ccc(C(=O)Nc3nc(-c4ccccn4)cs3)o2)cc1`: the IC90 came to 7.29 µM. The concentration for half-maximal inhibition (IC50) (HEPG2TOX_HILL_SLOPE 2.67, HEPG2TOX_R_SQUARED 0.908, PBLUC_HILL_SLOPE 30.3, PBLUC_R_SQUARED 0.327, read-out: LUCIFERASE INFECTION ASSAY - IC50) is 6.78 µM.

On to `Cc1nn(C(=O)Nc2cccc(C(F)(F)F)c2)c(C)c1Sc1ccc(C(F)(F)F)cn1`, for which the 90% effect concentration (IC90) is > 7.17 µM. Moreover, the IC50 (HEPG2TOX_HILL_SLOPE 21.1, HEPG2TOX_R_SQUARED 0.715, PBLUC_HILL_SLOPE 11, PBLUC_R_SQUARED 0.14, read-out: LUCIFERASE INFECTION ASSAY - IC50) came to 6.09 µM.

Turning to `Nc1ncc(-c2ccc(-c3ccccc3)cc2F)cc1-c1ccccc1F`, the IC90 is > 9.21 µM. Moreover, for the setting “PBLUC_HILL_SLOPE 34.9, PBLUC_R_SQUARED 0.254, read-out: LUCIFERASE INFECTION ASSAY - IC50”, the IC50 came out at 8.92 µM.

Consider `CNC(=O)c1ccc(/C=C/C(=O)c2ccc3c4c(cccc24)CC3)cc1`, for which the IC90 was found to be 9.31 µM. For the same compound, the IC50 (HEPG2TOX_HILL_SLOPE 8.19, HEPG2TOX_R_SQUARED 0.612, PBLUC_HILL_SLOPE 20.8, PBLUC_R_SQUARED 0.622, read-out: LUCIFERASE INFECTION ASSAY - IC50) amounted to 8.38 µM.

As for `Cc1ccc2[nH]c3c(c2c1)CCCC3NCCCN(C)C` (stereo unspecified), the IC90 is > 11.5 µM. Moreover, where the note is “HEPG2TOX_HILL_SLOPE 41.7, HEPG2TOX_R_SQUARED 0.689, PBLUC_HILL_SLOPE 2.08, PBLUC_R_SQUARED 0.555, read-out: LUCIFERASE INFECTION ASSAY - IC50”, the IC50 is 4.94 µM.

On to `CCN(c1ccc(NC(=O)CCc2ccccc2Cl)cc1)C(C)C`, for which the IC90 was > 10 µM. Further, the IC50 (HEPG2TOX_HILL_SLOPE 1.73, HEPG2TOX_R_SQUARED 0.92, read-out: LUCIFERASE INFECTION ASSAY - IC50) was > 10 µM.

`CC(C)Cn1c(-c2ccccc2F)nc2c(c(=O)c3ccccc3n2C)c1=O`: the IC90 came to 7.64 µM. In addition, the 50% inhibitory concentration (IC50) (PBLUC_HILL_SLOPE 4.02, PBLUC_R_SQUARED 0.715, read-out: LUCIFERASE INFECTION ASSAY - IC50) stood at 4.42 µM.

Take `Cc1nn(-c2ccccc2)c2nc(-c3cccs3)cc(C(=O)OC(C)C(=O)N3CCCc4ccccc43)c12` (stereo unspecified): the IC90 is > 10 µM. The concentration for half-maximal inhibition (IC50) (FFLUC_HILL_SLOPE 2.63, FFLUC_R_SQUARED 0.683, PBLUC_HILL_SLOPE 9.18, PBLUC_R_SQUARED 0.333, read-out: LUCIFERASE INFECTION ASSAY - IC50) is 8.32 µM.

For the compound `COc1ccc(Nc2nccc3nc(-c4ccc(C)cc4)[nH]c23)cc1`, the IC90 is > 10 µM. For the same compound, the IC50 (HEPG2TOX_HILL_SLOPE 7.88, HEPG2TOX_R_SQUARED 0.839, PBLUC_HILL_SLOPE 3.67, PBLUC_R_SQUARED 0.381, read-out: LUCIFERASE INFECTION ASSAY - IC50) came out at 7.4 µM.

As to `CN(CC(=O)Nc1ccc(Cl)c(C(F)(F)F)c1)c1nc(CN2CCCCC2)nc2sc3c(c12)CCCC3`, the concentration for an effect of 90% (IC90) worked out at 9.99 µM. Where the note is “HEPG2TOX_HILL_SLOPE 2.23, HEPG2TOX_R_SQUARED 0.93, PBLUC_HILL_SLOPE 4.09, PBLUC_R_SQUARED 0.44, read-out: LUCIFERASE INFECTION ASSAY - IC50”, the IC50 worked out at 5.84 µM.

The values are drawn from ChEMBL document CHEMBL4483862, “Open-source discovery of chemical leads for next-generation chemoprotective antimalarials” (2018).
